Experiment [1] concerns the target Prostaglandin G/H synthase 1 (Homo sapiens, UniProt P23219).
Description: In vitro inhibitory activity towards human platelet recombinant Prostaglandin G/H synthase 1
Experiment [2] addresses T1, Prostaglandin G/H synthase 2 (Homo sapiens, UniProt P35354).
T1 sequence (P35354 whole entry): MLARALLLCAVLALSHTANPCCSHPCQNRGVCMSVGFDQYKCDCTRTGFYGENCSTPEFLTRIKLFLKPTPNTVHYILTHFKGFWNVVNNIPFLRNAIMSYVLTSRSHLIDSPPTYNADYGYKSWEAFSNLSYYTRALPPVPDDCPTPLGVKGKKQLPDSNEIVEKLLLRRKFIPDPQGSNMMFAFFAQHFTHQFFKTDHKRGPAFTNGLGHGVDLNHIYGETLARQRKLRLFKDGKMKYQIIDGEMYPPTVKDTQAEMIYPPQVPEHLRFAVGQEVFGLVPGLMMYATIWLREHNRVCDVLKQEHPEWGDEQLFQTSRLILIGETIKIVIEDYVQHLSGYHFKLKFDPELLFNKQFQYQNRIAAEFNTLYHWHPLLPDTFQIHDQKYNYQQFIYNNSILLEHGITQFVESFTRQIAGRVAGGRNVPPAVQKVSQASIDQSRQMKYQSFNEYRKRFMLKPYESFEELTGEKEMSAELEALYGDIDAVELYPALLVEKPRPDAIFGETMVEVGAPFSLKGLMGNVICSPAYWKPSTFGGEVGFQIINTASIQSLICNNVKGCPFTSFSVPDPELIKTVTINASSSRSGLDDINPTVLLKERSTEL
Description: In vitro inhibitory activity towards human recombinant Prostaglandin G/H synthase 2 enzyme

In general, IC50 refers to the concentration that inhibits the measured activity by half. A high value points to weaker potency.

Chain of Prostaglandin G/H synthase 1 (P23219 whole entry): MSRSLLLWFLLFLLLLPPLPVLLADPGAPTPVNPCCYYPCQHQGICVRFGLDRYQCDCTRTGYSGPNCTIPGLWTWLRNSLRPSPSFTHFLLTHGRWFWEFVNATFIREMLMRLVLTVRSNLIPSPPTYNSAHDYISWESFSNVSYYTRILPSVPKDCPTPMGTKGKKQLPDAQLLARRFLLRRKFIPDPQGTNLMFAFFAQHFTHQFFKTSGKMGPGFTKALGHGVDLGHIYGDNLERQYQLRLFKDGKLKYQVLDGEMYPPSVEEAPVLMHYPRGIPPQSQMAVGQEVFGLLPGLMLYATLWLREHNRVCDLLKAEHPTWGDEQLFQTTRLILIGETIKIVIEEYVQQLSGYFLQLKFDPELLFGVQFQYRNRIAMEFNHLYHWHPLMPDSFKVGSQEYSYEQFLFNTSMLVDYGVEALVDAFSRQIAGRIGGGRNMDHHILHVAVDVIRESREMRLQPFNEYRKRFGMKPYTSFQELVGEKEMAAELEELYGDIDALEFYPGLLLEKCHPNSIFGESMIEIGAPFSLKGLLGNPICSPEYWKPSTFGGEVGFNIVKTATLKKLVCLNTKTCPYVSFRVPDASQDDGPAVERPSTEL

In experiment [1], `Cc1nc(-c2ccc(S(C)(=O)=O)cc2)c(-c2ccc(Cl)s2)o1` yielded an IC50 of 93 µM. This lies in the double-digit micromolar range.
For the molecule `CCS(=O)(=O)c1ccc(-c2oc(C)nc2-c2ccc(F)cc2)cc1`, the values for the IC50 in experiment [1] and in experiment [2] were above 100 µM and 38 µM, respectively.
On to `CCc1nc(C2CCCCC2)c(-c2ccc(S(C)(=O)=O)cc2)o1`, for which the IC50 in experiment [1] was 60 µM; in experiment [2], 0.27 µM.
`Cc1nc(C2CCCCC2)c(-c2ccc(S(C)(=O)=O)cc2)o1` yielded an IC50 in experiment [1] above 100 µM.
Still for that read-out and setting: under `Cc1nc(C2CCCCCC2)c(-c2ccc(S(C)(=O)=O)cc2)o1` stands above 100 µM.
On to `CNS(=O)(=O)c1ccc(-c2oc(C)nc2C2CCCCC2)cc1`, for which the IC50 was above 100 µM in experiment [1] and 3.1 µM in experiment [2].
Molecule `Cc1nc(C2CCCCC2)c(-c2ccc(S(N)(=O)=O)cc2)o1` showed an IC50 in experiment [1] of 47.5 µM.
`Cc1nc(-c2ccc(F)cc2)c(-c2ccc(S(N)(=O)=O)cc2)o1`: the IC50 in experiment [1] came to 4.7 µM; in experiment [2] it was 0.024 µM.
On to `CCc1ccc(-c2nc(C)oc2-c2ccc(S(C)(=O)=O)cc2)s1`, for which the IC50 was above 100 µM in experiment [1] and 0.14 µM in experiment [2].
For `Cc1nc(-c2ccc(S(C)(=O)=O)cc2)c(-c2ccc(F)cc2)o1`, in that order: above 100 µM and 2.1 µM.
As for `Cc1nc(-c2ccccc2)c(-c2ccc(S(C)(=O)=O)cc2)o1`, the IC50 in experiment [1] was above 100 µM; in experiment [2], 0.09 µM.
For `Cc1nc(C2CCCC2)c(-c2ccc(S(C)(=O)=O)cc2)o1`, in that order: above 100 µM and 18 µM.
In the case of `CS(=O)(=O)c1ccc(-c2oc(-c3ccccc3)nc2C2CCCCC2)cc1`, the IC50 in experiment [1] and in experiment [2] was above 100 µM each time.
In the case of `Cc1nc(-c2ccc(F)cc2)c(-c2ccc(S(C)(=O)=O)cc2)o1`, the figures for the IC50 in experiment [1] and in experiment [2] were 42 µM and 0.07 µM, respectively.
